Read-outs that look alike come from different tables or passages of the source.
How the values were obtained:
tumor cells [1] = assay: MTS proliferation assay (72 h read-out); type: cell-based
Outline: (§1)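 Viability was read by MTS absorbance at 492 nm after 3 h with reagent. Before that, cells plated a day earlier at 1.5×10^3–10^4 per well had been incubated with test compound at final concentrations of 0.001–10 μM for 72 h; activity is given as category scores A–D.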

[2] = MTS proliferation assay (72 h read-out); type: cell-based; settings: Homo sapiens, MRC5 cells
Outline: as §1

HeLa = assay: Colony Forming Units (read-out 6 days), HeLa; type: cell-based, human; settings: Homo sapiens, 144 h, colonies containing more than 30 cells, read-out: Colony Forming Units, score based on IC50, HeLa
Protocol: (§2) Appropriate numbers of cells (100-150 cells, dependent on the cell type) are being seeded out in 1 ml complete medium into 6-well plates and allowed to attach for 48 h. The compounds are added after 48 h in 500 μl solution. The concentrations are in the range of 0.001 μM-3 μM. Control plates receive the same volume of medium containing the appropriate amount of DMSO. The plates are incubated for 5-7 days at cell culture conditions and subsequently scored for growth of colonies (containing more than 30 cells) by using a microscope.

tumor cells [3] = assay: Hoechst 33342 nuclear staining (48 h read-out); type: cell-based
Outline: (§3)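 Adherent cells pre-spread 24 h before dosing, suspension cells dosed at seeding; compounds at 0.001 μM-10 μM final, 48 h at culture conditions. Hoechst 33342 (2-5 μg/ml) added for 30 min, then fluorescence microscopy scoring of apoptotic nuclear fraction and apoptosis-specific morphology, reported as scores A-D.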

[4] = Hoechst 33342 nuclear staining (48 h read-out); type: cell-based
Outline: as §3

tumor cells [5] = assay: Mitochondrial membrane potential, JC-1 (read-out 48 h); type: cell-based; settings: JC-1, 48 h
Outline: (§4)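 Tumor cells were treated with test compounds (adherent cells after 24 h of attachment, suspension cells immediately), medium holding up to 5% DMSO. After 48 h, JC-1 (2-5 μg/ml in added medium) was applied for 30 min. Fluorescence microscopy (FITC/TRITC filters) scored the fraction of cells with dissipated mitochondrial membrane potential as categories A-D.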

[6] = as above; type: cell-based; settings: PBL, JC-1, 48 h
Outline: as §4

H460 = assay: Colony Forming Units (read-out 6 days), H460; type: cell-based, human; settings: Homo sapiens, NCI-H460, 144 h, colonies containing more than 30 cells, read-out: Colony Forming Units, score based on IC50, H460
Protocol: as §2

[7] = Homo sapiens, HT-1080, HT1080 cells, read-out: MTS proliferation assay IC50, HT1080
[8] = Homo sapiens, HeLa cells, read-out: MTS proliferation assay IC50, HeLa
[9] = Homo sapiens, Jurkat cells, read-out: MTS proliferation assay IC50, Jurkat
[10] = Jily cells, read-out: MTS proliferation assay IC50, Jily
[11] = Homo sapiens, HeLa cells, read-out: Hoechst 33342 nuclear staining EC50, HeLa
[12] = Homo sapiens, Jurkat cells, read-out: Hoechst 33342 nuclear staining EC50, Jurkat
[13] = Jily cells, read-out: Hoechst 33342 nuclear staining EC50, Jily
[14] = Homo sapiens, MRC5 cells, read-out: Hoechst 33342 nuclear staining EC50, MRC5
[15] = Homo sapiens, HeLa cells, read-out: Mitochondrial membrane potential (read-out 48 h) HeLa
[16] = Homo sapiens, Jurkat cells, read-out: Mitochondrial membrane potential (read-out 48 h) Jurkat
[17] = Homo sapiens, MCF7 cells, read-out: Mitochondrial membrane potential (read-out 48 h) MCF7
[18] = Jily cells, read-out: Mitochondrial membrane potential (read-out 48 h) Jily
[19] = PBL, read-out: Hoechst 33342 nuclear staining EC50, PBL

SMILES | IC50 (tumor cells [1]; [7]) | IC50 (tumor cells [1]; [8]) | IC50 (tumor cells [1]; [9]) | IC50 (tumor cells [1]; [10]) | IC50 [2] | IC50 (HeLa) | EC50 (tumor cells [3]; [11]) | EC50 (tumor cells [3]; [12]) | EC50 (tumor cells [3]; [13]) | EC50 [4, 14] | EC50 (tumor cells [5]; [15]) | EC50 (tumor cells [5]; [16]) | EC50 (tumor cells [5]; [17]) | EC50 (tumor cells [5]; [18]) | EC50 [6] | melting point | IC50 (H460) | EC50 [4, 19]
COc1ccc(OC(C)C)c(C(=O)c2oc3ccc(Cl)cc3c2N)c1 [Example 15] | 10 to 100 nM | 100 to 1000 nM | 10 to 100 nM | 10 to 100 nM | 10 to 100 nM | 10 to 100 nM | 100 to 1000 nM | 10 to 100 nM | 10 to 100 nM | 100 to 1000 nM | 100 to 1000 nM | 10 to 100 nM | 100 to 1000 nM | 100 to 1000 nM | > 1000 nM | 131 to 132 °C | 10 to 100 nM | 
CCCOc1ccc(OC)cc1C(=O)c1oc2ccc(Cl)cc2c1N [Example 14] | 10 to 100 nM | 10 to 100 nM | < 10 nM | < 10 nM | 10 to 100 nM | 10 to 100 nM | 10 to 100 nM | 10 to 100 nM | 10 to 100 nM | 10 to 100 nM | 10 to 100 nM | 10 to 100 nM | 10 to 100 nM | 10 to 100 nM | > 1000 nM | 95 to 97 °C | 10 to 100 nM | 
CCOc1ccccc1C(=O)c1sc2ncccc2c1N [Example 114] | > 1000 nM | > 1000 nM | > 1000 nM | > 1000 nM | > 1000 nM |  | > 1000 nM | > 1000 nM | > 1000 nM | > 1000 nM | > 1000 nM | > 1000 nM | > 1000 nM | > 1000 nM | > 1000 nM | 138 to 142 °C |  | > 1000 nM
Cc1ccc(OC(C)C)c(C(=O)c2oc3ccc(Cl)cc3c2N)c1 [Example 16] | 10 to 100 nM | 10 to 100 nM | < 10 nM | < 10 nM | 10 to 100 nM |  | 10 to 100 nM | 10 to 100 nM | 10 to 100 nM | 10 to 100 nM | 10 to 100 nM | 10 to 100 nM | 10 to 100 nM | 10 to 100 nM | > 1000 nM | 110 to 112 °C |  | > 1000 nM
CCOc1ccc(F)cc1C(=O)c1oc2nc(C)ccc2c1N [Example 29] | < 10 nM | 10 to 100 nM | < 10 nM | < 10 nM | 10 to 100 nM | 10 to 100 nM | 10 to 100 nM | 10 to 100 nM | 10 to 100 nM | 100 to 1000 nM | 10 to 100 nM | 10 to 100 nM | 10 to 100 nM | 10 to 100 nM | > 1000 nM | 152 to 156 °C | 10 to 100 nM | > 1000 nM
CCOc1cc(OC)c(Br)cc1C(=O)c1oc2ccc(Cl)cc2c1N [Example 23] | > 1000 nM | > 1000 nM | 100 to 1000 nM | 100 to 1000 nM | > 1000 nM |  | > 1000 nM | 100 to 1000 nM | 100 to 1000 nM | > 1000 nM | > 1000 nM | 100 to 1000 nM | > 1000 nM | > 1000 nM | > 1000 nM | 132 to 133 °C |  | > 1000 nM
CCOc1ccc(NC(C)=O)cc1C(=O)c1oc2ccc(Cl)cc2c1N [Example 21] | > 1000 nM | > 1000 nM | > 1000 nM | > 1000 nM | > 1000 nM |  | > 1000 nM | > 1000 nM | > 1000 nM | > 1000 nM | > 1000 nM | > 1000 nM | > 1000 nM | > 1000 nM | > 1000 nM | 110 to 112 °C |  | > 1000 nM
CCOc1c(C)cccc1C(=O)c1oc2ccc(Cl)cc2c1N [Example 25] | > 1000 nM | > 1000 nM | 100 to 1000 nM | 100 to 1000 nM | > 1000 nM |  | > 1000 nM | 100 to 1000 nM | 100 to 1000 nM | > 1000 nM | > 1000 nM | 100 to 1000 nM | > 1000 nM | 100 to 1000 nM | > 1000 nM | 54 °C |  | > 1000 nM
CCOc1ccccc1C(=O)c1sc2ncc(N)cc2c1N [Example 117] | > 1000 nM | > 1000 nM | > 1000 nM | > 1000 nM | > 1000 nM |  | > 1000 nM | > 1000 nM | > 1000 nM | > 1000 nM | > 1000 nM | > 1000 nM | > 1000 nM | > 1000 nM | > 1000 nM | 116 °C |  | > 1000 nM
CCOc1ccc(F)cc1C(=O)c1oc2cnc(C)cc2c1N [Example 31] | 10 to 100 nM | 10 to 100 nM | 10 to 100 nM | 10 to 100 nM | 10 to 100 nM |  | 10 to 100 nM | 10 to 100 nM | 10 to 100 nM | 100 to 1000 nM | 100 to 1000 nM | 10 to 100 nM | > 1000 nM | 10 to 100 nM | > 1000 nM | 162 °C |  | > 1000 nM
CC(C)Oc1ccccc1C(=O)c1oc2ccc(Cl)cc2c1N [Example 9] | 10 to 100 nM | 100 to 1000 nM | 10 to 100 nM | 10 to 100 nM | 100 to 1000 nM | 10 to 100 nM | 100 to 1000 nM | 10 to 100 nM | 100 to 1000 nM | 100 to 1000 nM | 100 to 1000 nM | 10 to 100 nM | 100 to 1000 nM | 100 to 1000 nM | > 1000 nM | 110 °C | 10 to 100 nM | 
CCOc1ccc(F)cc1C(=O)c1oc2ccc(Cl)cc2c1N [Example 18] | < 10 nM | < 10 nM | < 10 nM | < 10 nM | < 10 nM | < 10 nM | < 10 nM | < 10 nM | < 10 nM | < 10 nM | < 10 nM | < 10 nM | < 10 nM | < 10 nM | > 1000 nM | 132 to 134 °C | < 10 nM | > 1000 nM
CCOc1ccc(F)cc1C(=O)c1sc2ncc(N)cc2c1N [Example 116] | 100 to 1000 nM | 100 to 1000 nM | 10 to 100 nM | 10 to 100 nM | 100 to 1000 nM |  | 10 to 100 nM | 10 to 100 nM | 10 to 100 nM | 10 to 100 nM | 100 to 1000 nM | 10 to 100 nM | > 1000 nM | 10 to 100 nM | > 1000 nM | 80 °C |  | > 1000 nM
CCOc1ccc(C)cc1C(=O)COc1ccc(Cl)cc1C#N [Example 144] | 100 to 1000 nM | 100 to 1000 nM | 10 to 100 nM | 10 to 100 nM | 100 to 1000 nM |  | 100 to 1000 nM | 10 to 100 nM | 10 to 100 nM | 100 to 1000 nM | 100 to 1000 nM | 10 to 100 nM | 100 to 1000 nM |  | > 1000 nM | 144 to 146 °C |  | > 1000 nM
CCOc1ccc(Cl)cc1C(=O)c1oc2ccc(Cl)cc2c1N [Example 17] | < 10 nM | 10 to 100 nM | < 10 nM | < 10 nM | < 10 nM |  | 10 to 100 nM | 10 to 100 nM | 10 to 100 nM | 10 to 100 nM | 10 to 100 nM | 10 to 100 nM | 10 to 100 nM | 10 to 100 nM | > 1000 nM | 140 to 142 °C |  | > 1000 nM
CCOc1ccc(F)cc1C(=O)c1sc2ncc([N+](=O)[O-])cc2c1N [Example 115] | > 1000 nM | > 1000 nM | > 1000 nM | > 1000 nM | > 1000 nM |  | > 1000 nM | > 1000 nM | > 1000 nM | > 1000 nM | > 1000 nM | > 1000 nM | > 1000 nM | > 1000 nM | > 1000 nM | 205 °C |  | > 1000 nM

— US8486996B2, “Aroylfuranes and aroylthiophenes” (Basilea Pharmaceutica AG, priority 2006, dated 2013)
